# Laboratory results: ChEMBL document CHEMBL1201862, “PubChem BioAssay data set” (2004)
#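 Results reflect a 48-hour exposure of cells in 96-well plates to compound at five concentrations. Here, GI50 denotes the concentration required for 50% inhibition of growth.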 Activity calls are given as the source filed them. No stated cut-off is given here; in the data, active = GI50 up to about 1.1 µM and inactive = higher.
# Tests used:
# Assay in all cases: NCI-60 cell line screen, 48 h
# 786-0 = test system: 786-0
# A498 = test system: A498
# BT-549 = test system: BT-549
# COLO 205 = test system: COLO 205
# DU-145 = test system: DU-145
# EKVX = test system: EKVX
# HCC 2998 = test system: HCC 2998
# HL-60 = test system: HL-60
# HOP-62 = test system: HOP-62
# Hs-578T = test system: Hs-578T
# NCI-H226 = test system: NCI-H226
# NCI-H460 = test system: NCI-H460
# NCI-H522 = test system: NCI-H522
# OVCAR-4 = test system: OVCAR-4
# PC-3 = test system: PC-3
# RPMI-8226 = test system: RPMI-8226
# SK-MEL-5 = test system: SK-MEL-5
# SK-OV-3 = test system: SK-OV-3
# U-251 = test system: U-251
# DLD-1 = test system: DLD-1
Structure (SMILES),GI50 (786-0),GI50 (A498),GI50 (BT-549),GI50 (COLO 205),GI50 (DU-145),GI50 (EKVX),GI50 (HCC 2998),GI50 (HL-60),GI50 (HOP-62),GI50 (Hs-578T),GI50 (NCI-H226),GI50 (NCI-H460),GI50 (NCI-H522),GI50 (OVCAR-4),GI50 (PC-3),GI50 (RPMI-8226),GI50 (SK-MEL-5),GI50 (SK-OV-3),GI50 (U-251),GI50 (DLD-1)
COc1ccc2nc3ccc(OC)cc3c(SCCO)c2c1,14.4 µM (inactive),> 58.1 µM (inactive),31.3 µM (inactive),23.6 µM (inactive),5.65 µM (inactive),31.7 µM (inactive),> 75 µM (inactive),4.17 µM (inactive),> 58.9 µM (inactive),15.4 µM (inactive),> 61.7 µM (inactive),68.9 µM (inactive),4.56 µM (inactive),63.8 µM (inactive),27.4 µM (inactive),12.3 µM (inactive),32.1 µM (inactive),54.5 µM (inactive),65 µM (inactive),–
COc1ccc(C2(CC(C)C)CCNC2)cc1OC (centres undefined),> 100 µM (inactive),> 100 µM (inactive),> 100 µM (inactive),> 100 µM (inactive),> 100 µM (inactive),86.1 µM (inactive),12.9 µM (inactive),> 100 µM (inactive),82.2 µM (inactive),> 100 µM (inactive),> 100 µM (inactive),> 100 µM (inactive),> 100 µM (inactive),> 100 µM (inactive),> 100 µM (inactive),61.1 µM (inactive),> 100 µM (inactive),> 100 µM (inactive),> 100 µM (inactive),–
CC(C)C(Cl)CCC(C)(Cl)C(=O)CBr (centres undefined),3.96 µM (inactive),15 µM (inactive),8.55 µM (inactive),3.4 µM (inactive),17.8 µM (inactive),18.2 µM (inactive),18.5 µM (inactive),0.425 µM (active),8.22 µM (inactive),5.73 µM (inactive),17.8 µM (inactive),16.1 µM (inactive),1.06 µM (active),4.6 µM (inactive),8.3 µM (inactive),0.634 µM (active),3.24 µM (inactive),20 µM (inactive),12.7 µM (inactive),–
CN(CCn1cnc2c1c(=O)n(C)c(=O)n2C)C1CCCCC1,> 100 µM (inactive),> 100 µM (inactive),> 100 µM (inactive),> 100 µM (inactive),> 100 µM (inactive),> 100 µM (inactive),> 100 µM (inactive),> 100 µM (inactive),> 100 µM (inactive),> 100 µM (inactive),> 100 µM (inactive),> 100 µM (inactive),> 100 µM (inactive),> 100 µM (inactive),> 100 µM (inactive),> 100 µM (inactive),> 100 µM (inactive),> 100 µM (inactive),> 100 µM (inactive),–
CCOC(=O)c1cc(Br)c(-c2onc(C)c2Br)n1C,25.9 µM (inactive),45.2 µM (inactive),41.4 µM (inactive),28.4 µM (inactive),93.5 µM (inactive),6.08 µM (inactive),85.9 µM (inactive),11.8 µM (inactive),35.6 µM (inactive),10.8 µM (inactive),55.2 µM (inactive),40 µM (inactive),19.1 µM (inactive),38.5 µM (inactive),35.3 µM (inactive),55 µM (inactive),16.9 µM (inactive),21.9 µM (inactive),43.1 µM (inactive),–
Cn1cnc(N)c(N=O)c1=O,> 10 µM (inactive),> 10 µM (inactive),> 10 µM (inactive),> 10 µM (inactive),> 10 µM (inactive),> 10 µM (inactive),> 10 µM (inactive),> 10 µM (inactive),> 10 µM (inactive),> 10 µM (inactive),> 10 µM (inactive),> 10 µM (inactive),> 10 µM (inactive),> 10 µM (inactive),> 10 µM (inactive),> 10 µM (inactive),> 10 µM (inactive),> 10 µM (inactive),> 10 µM (inactive),–
CCc1cc(CCC(=O)Nc2ccccc2[N+](=O)[O-])nc(S)n1,> 100 µM (inactive),–,–,> 100 µM (inactive),–,> 100 µM (inactive),–,> 100 µM (inactive),> 100 µM (inactive),–,> 100 µM (inactive),> 100 µM (inactive),–,–,–,–,–,> 100 µM (inactive),> 100 µM (inactive),> 100 µM (inactive)
